Counter-ions that a name gives are not always drawn.

The subject of one assay is hPSC-SCs.
Settings: not given
Regarding `CCCCOC(=O)c1ccc(O)cc1` [Butylparaben], the z.score.t was −0.2359.
The same measure, in the same setting: then `CN1CC[C@]23c4ccccc4N[C@H]1[C@]21CCN(C)[C@H]3Nc2ccccc21` [Calycanthine], with 0.4849.
For the compound `NC(N)=NOCC[C@H](N)C(=O)O.O.O=S(=O)(O)O` [Canavanine sulfate monohydrate (L, +)], the z.score.t worked out at 1.095.
Same read-out and setting: to `C[C@@]12C(=O)OC(=O)[C@]1(C)[C@H]1CC[C@@H]2O1` [Cantharidin] belongs −2.175; to `CCCC(C)(COC(N)=O)COC(=O)NC(C)C` (stereo not drawn) [Carisoprodol], 0.425.
Still for that read-out and setting: then `CCC1=C[C@@H]2CN3CCc4c([nH]c5ccccc45)[C@@](C(=O)OC)(C2)[C@@H]13` [Catharanthine], with 0.2625; and `CC(=O)OCC1=C(C(=O)O)N2C(=O)[C@@H](N)[C@H]2SC1` [Cephalosporanic acid, 7-amino], with −0.7049.
Same read-out and setting: then `O=C(O)CCCc1ccc(N(CCCl)CCCl)cc1` [Chlorambucil], with −1.263; and `CN1C(=O)CCS(=O)(=O)C1c1ccc(Cl)cc1` (stereo not drawn) [Chlormezanone], with −0.5532; and `CCN(CC)CCCC(C)Nc1ccnc2cc(Cl)ccc12` (stereo not drawn) [Chloroquine diphosphate], with 0.7847.

Staying with this assay, now noted: HTS viability of hPSC-SCs in the presence of 30 mM glucose; Prestwick library; Table S4.
With `CN(C)CCC(c1ccc(Br)cc1)c1ccccn1` (stereo not drawn) [Brompheniramine maleate], the z.score.t was −0.8478.
As to `CCCC(=O)Nc1ncnc2c1ncn2[C@@H]1O[C@@H]2COP(=O)(O)O[C@H]2[C@H]1OC(=O)CCC` [Bucladesine sodium salt], the z.score.t is on record as 0.7727.
Still for that read-out and setting: then `CCCC1O[C@@H]2C[C@H]3[C@@H]4CCC5=CC(=O)C=C[C@]5(C)[C@H]4[C@@H](O)C[C@]3(C)[C@]2(C(=O)CO)O1` (stereo partly drawn) [Budesonide], with 1.74.
Turning to `CCCCOc1ccc(CC(=O)NO)cc1` [Bufexamac], the z.score.t was −0.6623.
Consider `COc1cc(OC)c(C(=O)CCCN2CCCC2)c(OC)c1` [Buflomedil hydrochloride], for which the z.score.t amounted to 0.3641.
As to `CCCCNc1cc(C(=O)O)cc(S(N)(=O)=O)c1Oc1ccccc1` [Bumetanide], the z.score.t was determined as 1.181.
As for `CCCCN1CCCCC1C(=O)Nc1c(C)cccc1C` (stereo not drawn) [Bupivacaine hydrochloride], the z.score.t was −0.3156.
The same measure, in the same setting: then `CC(NC(C)(C)C)C(=O)c1cccc(Cl)c1` (stereo not drawn) [Bupropion hydrochloride], with 2.803; and `CCCCN(CCCC)CCCOC(=O)c1ccc(N)cc1` [Butacaine], with −0.3023.
Take `CCCCOC(=O)c1ccc(N)cc1` [Butamben]: the z.score.t is given as 0.8465.
The same measure, in the same setting: to `Clc1ccc(CCC(Cn2ccnc2)Sc2c(Cl)cccc2Cl)cc1` (stereo not drawn) [Butoconazole nitrate] belongs −1.151.
In the case of `O=C(O)/C=C/c1ccc(O)c(O)c1` [Caffeic acid], the z.score.t is recorded as 0.9865.
For `C=C1CC[C@H](O)C/C1=C/C=C1\CCC[C@]2(C)[C@@H]([C@H](C)/C=C/[C@H](C)C(C)C)CC[C@@H]12` [Calciferol], the z.score.t is listed as 0.4451.
Still for that read-out and setting: to `CC[C@@]1(O)C(=O)OCc2c1cc1n(c2=O)Cc2cc3ccccc3nc2-1` [Camptothecine (S, +)] belongs −1.163.
Same read-out and setting: to `C[C@]12CCC(=O)C=C1C=C[C@@H]1[C@@H]2CC[C@@]2(C)[C@H]1CC[C@@]2(O)CCC(=O)O` [Canrenoic acid potassium salt] belongs 0.05523; to `COc1cc(CNC(=O)CCCC/C=C/C(C)C)ccc1O` [Capsaicin], 0.03421.
The same measure, in the same setting: to `C[C@H](CS)C(=O)N1CCC[C@H]1C(=O)O` [Captopril] belongs 2.207; to `C[N+](C)(C)CCOC(N)=O` [Carbachol], −0.1239.
For the compound `NC(=O)N1c2ccccc2C=Cc2ccccc21` [Carbamazepine], the z.score.t is given as 0.8158.
The same measure, in the same setting: then `CC1(C)[C@@H](OC(=O)CCC(=O)O)CC[C@]2(C)[C@H]3C(=O)C=C4[C@@H]5C[C@@](C)(C(=O)O)CC[C@]5(C)CC[C@@]4(C)[C@]3(C)CC[C@@H]12` [Carbenoxolone disodium salt], with 1.163; and `CCN(CC)CCOCCOC(=O)C1(c2ccccc2)CCCC1` [Carbetapentane citrate], with 0.3024.
On the same count and under the same terms, to `CCOC(=O)n1ccn(C)c1=S` [Carbimazole] belongs −0.2276; to `NCCC(=O)NCCc1c[nH]cn1` [Carcinine], 0.8711.
Consider `CC(C)(C)NCC(O)COc1cccc2c1CCC(=O)N2` (stereo not drawn) [Carteolol hydrochloride], for which the z.score.t is reported as 1.266.
Same read-out and setting: then `N[C@@H](C(=O)N[C@@H]1C(=O)N2C(C(=O)O)=C(Cl)CS[C@H]12)c1ccccc1` [Cefaclor], with −0.7233.
Same read-out and setting: then `CC1=C(C(=O)O)N2C(=O)[C@@H](NC(=O)[C@H](N)c3ccc(O)cc3)[C@H]2SC1` [Cefadroxil], with 0.5046; and `NC(=O)c1cc[n+](CC2=C(C(=O)[O-])N3C(=O)[C@@H](NC(=O)Cc4cccs4)[C@H]3SC2)cc1` [Cefalonium], with −0.3867.
With `Cn1nnnc1SCC1=C(C(=O)O)N2C(=O)[C@@H](NC(=O)[C@H](O)c3ccccc3)[C@H]2SC1` [Cefamandole sodium salt], the z.score.t was −0.7376.
Still for that read-out and setting: to `Cc1nnc(SCC2=C(C(=O)O)N3C(=O)[C@@H](NC(=O)Cn4cnnn4)[C@H]3SC2)s1` [Cefazolin sodium salt] belongs −0.6194; to `CO/N=C(\C(=O)N[C@@H]1C(=O)N2C(C(=O)O)=C(C[N+]3(C)CCCC3)CS[C@H]12)c1csc(N)n1` [Cefepime hydrochloride], −0.9926; to `C=CC1=C(C(=O)O)N2C(=O)[C@@H](NC(=O)/C(=N\OCC(=O)O)c3csc(N)n3)[C@H]2SC1` [Cefixime], 0.5046.
Still for that read-out and setting: to `CO[C@@]1(NC(=O)CSCC#N)C(=O)N2C(C(=O)O)=C(CSc3nnnn3C)CS[C@@H]21` [Cefmetazole sodium salt] belongs 0.1916.
Still for that read-out and setting: then `CCN1CCN(C(=O)N[C@@H](C(=O)N[C@@H]2C(=O)N3C(C(=O)O)=C(CSc4nnnn4C)CS[C@H]23)c2ccc(O)cc2)C(=O)C1=O` [Cefoperazone dihydrate], with −0.7233.
On to `NCc1ccccc1CC(=O)N[C@@H]1C(=O)N2C(C(=O)O)=C(CSc3nnnn3CC(=O)O)CS[C@H]12` [Ceforanide], for which the z.score.t is on record as −0.5532.
The same measure, in the same setting: then `CO/N=C(\C(=O)N[C@@H]1C(=O)N2C(C(=O)O)=C(COC(C)=O)CS[C@H]12)c1csc(N)n1` [Cefotaxime sodium salt], with 1.931.
Same read-out and setting: then `CO[C@@]1(NC(=O)C2SC(=C(C(N)=O)C(=O)O)S2)C(=O)N2C(C(=O)O)=C(CSc3nnnn3C)CS[C@@H]21` (stereo partly drawn) [Cefotetan], with −0.4942; and `CN(C)CCn1nnnc1SCC1=C(C(=O)O)N2C(=O)[C@@H](NC(=O)Cc3csc(N)n3)[C@H]2SC1` [Cefotiam hydrochloride], with −1.122.
Same read-out and setting: to `CO[C@@]1(NC(=O)Cc2cccs2)C(=O)N2C(C(=O)O)=C(COC(N)=O)CS[C@@H]21` [Cefoxitin sodium salt] belongs 0.6964; to `NC(=O)c1cc[n+](CC2=C(C(=O)O)N3C(=O)[C@@H](NC(=O)[C@@H](c4ccccc4)S(=O)(=O)[O-])[C@H]3SC2)cc1` [Cefsulodin sodium salt], −0.03362.
For the compound `CC(C)(O/N=C(\C(=O)N[C@@H]1C(=O)N2C(C(=O)[O-])=C(C[n+]3ccccc3)CS[C@H]12)c1csc(N)n1)C(=O)O` [Ceftazidime pentahydrate], the z.score.t is 0.563.
On the same count and under the same terms, then `CO/N=C(\C(=O)N[C@@H]1C(=O)N2C(C(=O)O)=C(COC(N)=O)CS[C@H]12)c1ccco1` [Cefuroxime sodium salt], with −0.8132; and `CC1=C(C(=O)O)N2C(=O)[C@@H](NC(=O)[C@H](N)c3ccccc3)[C@H]2SC1` [Cephalexin monohydrate], with 1.08; and `CC(=O)OCC1=C(C(=O)O)N2C(=O)[C@@H](NC(=O)Cc3cccs3)[C@H]2SC1` [Cephalothin sodium salt], with −1.359.
The same measure, in the same setting: then `O=C(O)COCCN1CCN(C(c2ccccc2)c2ccc(Cl)cc2)CC1` (stereo not drawn) [Cetirizine dihydrochloride], with −0.3112.
The same measure, in the same setting: to `C[C@H](CCC(=O)O)[C@H]1CC[C@H]2[C@@H]3[C@H](O)C[C@@H]4C[C@H](O)CC[C@]4(C)[C@H]3CC[C@]12C` [Chenodiol] belongs 1.481; to `COc1cc(-c2ccc(N=Nc3ccc4c(S(=O)(=O)[O-])cc(S(=O)(=O)[O-])c(N)c4c3O)c(OC)c2)ccc1N=Nc1ccc2c(S(=O)(=O)[O-])cc(S(=O)(=O)[O-])c(N)c2c1O.[Na+].[Na+].[Na+].[Na+]` [Chicago sky blue 6B], 0.6578; to `O=C(N[C@H](CO)[C@H](O)c1ccc([N+](=O)[O-])cc1)C(Cl)Cl` [Chloramphenicol], 1.278.
On to `CN1CCN(C(c2ccccc2)c2ccc(Cl)cc2)CC1` (stereo not drawn) [Chlorcyclizine hydrochloride], for which the z.score.t was −1.754.
As for `[H]/N=C(\N/C(=N/[H])NCCCCCCNC(=N)NC(=N)Nc1ccc(Cl)cc1)Nc1ccc(Cl)cc1` [Chlorhexidine], the z.score.t came out at 1.056.
Same read-out and setting: then `O=C(/C=C/c1ccc(O)c(O)c1)O[C@@H]1C[C@](O)(C(=O)O)C[C@@H](O)[C@H]1O` [Chlorogenic acid], with 0.888; and `CN(C)CCN(Cc1ccc(Cl)cc1)c1ccccn1` [Chloropyramine hydrochloride], with −0.5169.
Same read-out and setting: then `NS(=O)(=O)c1cc2c(cc1Cl)N=CNS2(=O)=O` [Chlorothiazide], with 1.171; and `COc1ccc(C(Cl)=C(c2ccc(OC)cc2)c2ccc(OC)cc2)cc1` [Chlorotrianisene], with −0.5169; and `CN(C)CCC(c1ccc(Cl)cc1)c1ccccn1` (stereo not drawn) [Chlorpheniramine maleate], with 0.5452.
Same read-out and setting: to `NC(=O)OCC(O)COc1ccc(Cl)cc1` (stereo not drawn) [Chlorphensin carbamate] belongs −0.09426; to `CN(C)CCCN1c2ccccc2Sc2ccc(Cl)cc21` [Chlorpromazine hydrochloride], −1.622.

For the origin of these results see US20260053861A1, “CELL COMPOSITIONS AND METHODS OF USING THE SAME” (THE REGENTS OF THE UNIVERSITY OF CALIFORNIA, priority 2022, published 2026).
